Results reported in patent publication US5786330A, “Peptide compounds which are therapeutically active in the cascade of blood coagulation, process for preparing them and pharmaceutical compositions containing them” (Adir et Compagnie, priority 1993, dated 1998).
*1 amine or outer side, *2 acyl side, *3 side chain or, on linkers, in order; H or OH if unused. Where a SMILES comes first, the peptide text is derived from it. [ ]: non-standard residue; d: D form. Phe(4-PO3H2) = N[C@@H](Cc1ccc(P(=O)(O)O)cc1)C(=O)O; Oic = O=C(O)[C@@H]1C[C@@H]2CCCC[C@@H]2N1; X1 = O=C([C@@H]1C2CCC(CC2)N1[*:1])[*:2]

Experiments:
human thrombin [1] = target: T1, human thrombin (Homo sapiens, UniProt P00734); test: inhibition of thrombin, chromogenic substrate H-D-Phe-Pip-Arg-pNA (S 2238); assay type: biochemical; details: 20 C, 405 nm
T1 construct: human thrombin (Sigma, specific activity 3230 NIHU/mg); purchased Sigma
Experimental: (§1) In order to evaluate in vitro the inhibitory activity of the products of the invention on human thrombin (Sigma, specific activity 3230 NIHU/mg), human fibrinogen (purified or plasmatic) (Fg) or the chromogenic substrate H-D-Phe-Pip-Arg-pNA ([…], S 2238, Kabi) were added to a given quantity of thrombin (0.7 or 2 nM) previously incubated with or without the test inhibitor (20 C, 10 min).
(§2) In order to evaluate in vitro the selectivity of these products towards various coagulation serine proteases, the same procedure was applied to purified human plasmin (2 nM, Stago), to purified human activated factor X (2 nM, Stago), to kallikrein (2 nM, sigma), to urokinase (2 nM, sigma), to plasminogen tissue activator (t-PA; 2 nM, Stago) and to purified human activated protein C (2 nM, Stago) using, as substrate, various paranitroanilide-containing peptides. The inhibitors, enzymes and substrates are diluted in the same buffer ([…] phosphate buffer pH 7.4, containing 0.12M sodium chloride and 0.05% bovine serum albumin) and then distributed in a polystyrene microplate in a volume of 50 l.
(§3) The fibrin formed by thrombin or the paranitroanilide liberated by the action of the serin protease is measured spectrophotometrically at 405 nm after reacting for 15 to 30 minutes at 20° C. […] The results are expressed in IC50 value: the concentration in nM which inhibits the enzymatic activity by 50%.

human thrombin [2] = target: T1, human thrombin; test: inhibition of thrombin, fibrinogen as substrate; assay type: biochemical; details: 20 C, fibrin measured at 405 nm
Experimental: as §1, §2, §3

urokinase = target: T2, urokinase (Homo sapiens, UniProt P00749); test: selectivity towards coagulation serine proteases: urokinase; assay type: biochemical; details: 2 nM enzyme, paranitroanilide-containing peptide substrate; read-out: IC50 with respect to urokinase
T2 construct: purchased sigma
Experimental: as §2, §3

[3] = tested on: activated cephalin time (ACT), OFA rats; test: activated cephalin time (ACT) ex vivo in OFA rats; details: rat, 0.8 mg/kg i.v.
Experimental: (§4) In the presence of a standard quantity of thrombin or activated cephalin, a normal plasma coagulates within a defined and constant time called thrombin time (TT) and activated cephalin time (ACT) respectively. The extension of these coagulation times by pharmacological substances reflects an anticoagulant effect.
(§5) The effect of the products was tested ex vivo in OFA rats anesthetized with sodium pentobarbital (60 mg/kg i.p.) The carotid artery and the jugular vein are catheterized. After installation of the catheters, 1.5 cm^3 of arterial blood are collected over citrate (0.109M). 30 minutes later, the test product is administered in a volume of 1 ml by i.v. Arterial samples (1.5 cm^3) are then collected at […], 3 min, 5 min, 15 min, 30 min and 60 min. At each collection of sample, 1.5 cm^3 of citrated physiological saline is reinjected into the animal via the carotid.

[4] = tested on: thrombin time (TT), OFA rats; test: thrombin time (TT) ex vivo in OFA rats; details: rat, 0.8 mg/kg i.v.
Experimental: as §4, §5

[5] = target: T3, plasminogen tissue activator (t-PA) (Homo sapiens, UniProt P00750); test: selectivity towards coagulation serine proteases: t-PA; assay type: biochemical; details: 2 nM enzyme, paranitroanilide-containing peptide substrate; read-out: IC50 with respect to t-PA
T3 construct: purchased Stago
T3 sequence (P00750 23-562 limits assumed, species assumed): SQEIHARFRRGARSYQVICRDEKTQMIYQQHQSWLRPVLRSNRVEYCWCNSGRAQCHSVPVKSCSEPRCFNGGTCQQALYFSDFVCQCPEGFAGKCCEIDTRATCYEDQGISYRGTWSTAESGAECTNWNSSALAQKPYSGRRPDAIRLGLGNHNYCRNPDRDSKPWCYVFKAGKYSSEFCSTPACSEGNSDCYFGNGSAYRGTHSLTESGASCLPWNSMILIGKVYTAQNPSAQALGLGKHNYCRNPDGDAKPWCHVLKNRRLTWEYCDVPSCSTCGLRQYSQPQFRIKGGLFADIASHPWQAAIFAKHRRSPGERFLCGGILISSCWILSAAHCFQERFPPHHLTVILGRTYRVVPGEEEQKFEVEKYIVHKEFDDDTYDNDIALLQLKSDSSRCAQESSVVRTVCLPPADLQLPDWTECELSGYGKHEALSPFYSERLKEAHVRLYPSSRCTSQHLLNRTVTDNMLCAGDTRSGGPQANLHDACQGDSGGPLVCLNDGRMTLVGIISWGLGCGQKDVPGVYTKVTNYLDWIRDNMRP
Experimental: as §2, §3

[6] = tested on: activated cephalin time (ACT), human plasma; test: activated cephalin time (ACT) in vitro on human plasma; assay type: biochemical; details: human plasma low in platelets, citrate
Experimental: as §4
(§6) The in vitro effect of the products of the invention was measured on human plasma. Blood was collected by venous puncture in a tube containing citrate. After decantation (1200 g, 10 min), the plasma low in platelets is decanted so as to then carry out the coagulation tests. […] The compound of Example 1 doubles the TT at the concentration of […] and the ACT at the concentration of […].

purified human plasmin = target: T4, purified human plasmin (Homo sapiens, UniProt P00747); test: selectivity towards coagulation serine proteases: plasmin; assay type: biochemical; details: 2 nM enzyme, paranitroanilide-containing peptide substrate; read-out: IC50 with respect to plasmin
T4 construct: purified human plasmin (2 nM, Stago); purchased Stago
T4 sequence (P00747 581-810 limits assumed): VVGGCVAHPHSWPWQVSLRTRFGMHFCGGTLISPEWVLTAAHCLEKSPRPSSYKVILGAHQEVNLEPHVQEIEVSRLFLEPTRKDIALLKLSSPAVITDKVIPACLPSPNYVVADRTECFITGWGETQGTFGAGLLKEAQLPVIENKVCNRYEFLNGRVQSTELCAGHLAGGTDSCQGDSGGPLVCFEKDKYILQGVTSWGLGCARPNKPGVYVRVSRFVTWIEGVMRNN
T4 sequence (P00747 97-580 limits assumed): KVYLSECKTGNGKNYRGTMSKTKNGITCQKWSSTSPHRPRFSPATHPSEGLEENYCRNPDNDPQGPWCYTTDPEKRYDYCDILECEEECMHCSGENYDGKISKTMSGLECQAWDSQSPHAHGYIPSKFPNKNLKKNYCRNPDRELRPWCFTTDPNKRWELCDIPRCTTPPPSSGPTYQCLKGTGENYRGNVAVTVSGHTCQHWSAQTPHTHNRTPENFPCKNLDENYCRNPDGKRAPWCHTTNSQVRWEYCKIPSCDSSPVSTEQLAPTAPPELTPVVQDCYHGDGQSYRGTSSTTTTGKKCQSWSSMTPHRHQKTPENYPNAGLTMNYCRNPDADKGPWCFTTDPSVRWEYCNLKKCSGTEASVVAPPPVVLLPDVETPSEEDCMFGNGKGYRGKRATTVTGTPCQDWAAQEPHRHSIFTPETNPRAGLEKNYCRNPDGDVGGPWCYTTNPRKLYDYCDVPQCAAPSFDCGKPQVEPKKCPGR
Experimental: as §2, §3

kallikrein = test: selectivity towards coagulation serine proteases: kallikrein; assay type: biochemical; details: 2 nM enzyme, paranitroanilide-containing peptide substrate; read-out: IC50 with respect to kallikrein
Experimental: as §2, §3

[7] = tested on: thrombin time (TT), human plasma; test: thrombin time (TT) in vitro on human plasma; assay type: biochemical; details: human plasma low in platelets, citrate
Experimental: as §4, §6

[8] = target: T5, purified human activated factor X (Homo sapiens, UniProt P00742); test: selectivity towards coagulation serine proteases: activated factor X; assay type: biochemical; details: 2 nM enzyme, paranitroanilide-containing peptide substrate; read-out: IC50 with respect to activated factor X
T5 construct: purchased Stago
T5 sequence (P00742 235-488 limits assumed): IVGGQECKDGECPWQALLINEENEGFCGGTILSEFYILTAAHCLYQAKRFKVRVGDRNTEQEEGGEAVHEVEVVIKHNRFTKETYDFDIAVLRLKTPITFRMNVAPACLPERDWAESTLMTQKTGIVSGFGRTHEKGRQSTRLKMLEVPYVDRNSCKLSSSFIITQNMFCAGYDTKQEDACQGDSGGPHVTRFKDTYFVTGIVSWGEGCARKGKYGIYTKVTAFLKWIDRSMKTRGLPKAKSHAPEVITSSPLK
T5 sequence (P00742 41-179 limits assumed): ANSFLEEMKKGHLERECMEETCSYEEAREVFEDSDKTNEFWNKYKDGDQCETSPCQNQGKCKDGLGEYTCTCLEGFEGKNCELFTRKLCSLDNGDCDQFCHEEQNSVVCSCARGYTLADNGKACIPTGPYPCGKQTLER
Experimental: as §2, §3

male OFA rats = test: venous thrombosis induced by ligation of the vena cava inferior (weight of the clot); assay type: in vivo; details: rat, clot withdrawn 25 minutes after ligation
Experimental: The test animals are anesthetized by administration of sodium pentobarbital (50 mg/kg i.p.). 15 minutes before the ligation, the animals are treated with the test products via the i.v. route. The clot is withdrawn from the vena cava 25 minutes after the ligation, it is weighed after desiccation (24 hours at 60 C.).

[9] = target: T6, purified human activated protein C (Homo sapiens, UniProt P04070); test: selectivity towards coagulation serine proteases: activated protein C; assay type: biochemical; details: 2 nM enzyme, paranitroanilide-containing peptide substrate; read-out: IC50 with respect to activated protein C
T6 construct: purchased Stago
T6 sequence (P04070 212-450 limits assumed): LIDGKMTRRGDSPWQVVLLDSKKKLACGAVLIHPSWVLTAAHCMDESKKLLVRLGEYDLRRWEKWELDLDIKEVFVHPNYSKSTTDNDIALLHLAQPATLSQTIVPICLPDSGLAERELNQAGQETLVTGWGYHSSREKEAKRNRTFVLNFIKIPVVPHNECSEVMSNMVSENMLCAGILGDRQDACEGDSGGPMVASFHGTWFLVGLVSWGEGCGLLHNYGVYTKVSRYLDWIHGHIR
T6 sequence (P04070 43-197 limits assumed): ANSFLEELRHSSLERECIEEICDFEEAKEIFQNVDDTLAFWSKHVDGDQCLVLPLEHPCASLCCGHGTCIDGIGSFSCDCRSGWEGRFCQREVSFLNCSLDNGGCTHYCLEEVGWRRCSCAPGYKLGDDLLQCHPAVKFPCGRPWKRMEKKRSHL
Experimental: as §2, §3

`CC[C@H](C)[C@H](NC(=O)[C@@H]1C2CCC(CC2)N1C(=O)[C@H](CCC(=O)O)NC(=O)[C@H](Cc1ccccc1)NC(=O)[C@H](CC(=O)O)NC(=O)CNC(=O)[C@H](CC(N)=O)NC(=O)CNC(=O)CNC(=O)CNC(=O)CNC(=O)[C@@H]1CCCN1C(=O)[C@H](CCCNC(=N)N)NC(=O)[C@@H]1CCCN1C(=O)[C@H](N)Cc1ccccc1)C(=O)N1CCC[C@H]1C(=O)N[C@@H](CCC(=O)O)C(=O)N[C@@H](CCC(=O)O)C(=O)N[C@@H](Cc1ccc(P(=O)(O)O)cc1)C(=O)N[C@@H](CC(C)C)C(=O)N[C@H](CCC(=O)O)C(=O)O` [Example 1, H-phe-Pro-Arg-Pro-(Gly)4 -Asn-Gly-Asp-Phe-Glu-Abo-Ile-Pro-(Glu)2 -Phe(pPO3 H2)-Leu-glu-OH] (H-[dF]PRPGGGGNGDFE[X1]IPEE[Phe(4-PO3H2)]L[dE]-OH) gave an IC50 (human thrombin [1]) of 0.018 µM and an IC50 (human thrombin [2]) of 0.0061 µM.

Molecule `CC[C@H](C)[C@H](NC(=O)[C@@H]1C2CCC(CC2)N1C(=O)[C@H](CCC(=O)O)NC(=O)[C@H](Cc1ccccc1)NC(=O)[C@H](CC(=O)O)NC(=O)CNC(=O)[C@H](CC(N)=O)NC(=O)CNC(=O)CNC(=O)CNC(=O)CNC(=O)[C@@H]1CCCN1C(=O)[C@H](CCCNC(=N)N)NC(=O)[C@@H]1C[C@@H]2CCCC[C@@H]2N1C(=O)[C@H](N)Cc1ccccc1)C(=O)N1CCC[C@H]1C(=O)N[C@@H](CCC(=O)O)C(=O)N[C@@H](CCC(=O)O)C(=O)N[C@@H](Cc1ccc(P(=O)(O)O)cc1)C(=O)N[C@@H](CC(C)C)C(=O)N[C@H](CCC(=O)O)C(=O)O` [Example 2, H-phe-Oic-Arg-Pro-(Gly)4 -Asn-Gly-Asp-Phe-Glu-Abo-Ile-Pro-(Glu)2 -Phe(pPO3 H2)-Leu-glu-OH] (H-[dF][Oic]RPGGGGNGDFE[X1]IPEE[Phe(4-PO3H2)]L[dE]-OH) has an IC50 (human thrombin [1]) of 0.015 µM and an IC50 (human thrombin [2]) of 0.004 µM.

`CC[C@H](C)[C@H](NC(=O)[C@H](CCC(=O)O)NC(=O)[C@H](CCC(=O)O)NC(=O)[C@H](Cc1ccccc1)NC(=O)[C@H](CC(=O)O)NC(=O)CNC(=O)[C@H](CC(N)=O)NC(=O)CNC(=O)CNC(=O)CNC(=O)CNC(=O)[C@@H]1CCCN1C(=O)[C@H](CCCNC(=N)N)NC(=O)[C@@H]1CCCN1C(=O)[C@H](N)Cc1ccccc1)C(=O)N1CCC[C@H]1C(=O)N[C@@H](CCC(=O)O)C(=O)N[C@@H](CCC(=O)O)C(=O)N[C@@H](Cc1ccc(O)cc1)C(=O)N[C@@H](CC(C)C)C(=O)O` [hirulog-1] was tested, and the IC50 (urokinase) was > 33 µM, the “Increase in the ACT (multiplicative factor)” value (shortened to “Increase in the ACT”) ([3]; 1.5 min) was 3.8 and the “Increase in the ACT” value ([3]; 3 min) was 3.2. For the same molecule, the “Increase in the ACT” value ([3]; 5 min) was 2.6, the “Increase in the ACT” value ([3]; 15 min) was 2.1 and the “Increase in the ACT” value ([3]; 30 min) was 1.6. For the same molecule, the “Increase in the ACT” value ([3]; 60 min) was 1.3, the “Increase in the TT (multiplicative factor)” value (from here on “Increase in the TT”) ([4]; 1.5 min) was 13 and the “Increase in the TT” value ([4]; 3 min) was 11. The “Increase in the TT” value ([4]; 5 min) was 9.8, the “Increase in the TT” value ([4]; 15 min) was 6.6 and the “Increase in the TT” value ([4]; 30 min) was 4.2. For the same molecule, the “Increase in the TT” value ([4]; 60 min) was 2.2, the IC50 [5] was > 33 µM and the “concentration that doubles the ACT” value [6] was 0.2 M. The IC50 (purified human plasmin) was > 33 µM, the IC50 (kallikrein) was > 33 µM and the “concentration that doubles the TT” value [7] was 0.07 M. For the same molecule, the IC50 [8] was > 33 µM, the “Decrease in the weight of the clot in %” value (male OFA rats; 0.1 mg/kg i.v. 15 minutes before ligation) was -0% and the “Decrease in the weight of the clot in %” value (male OFA rats; 1 mg/kg i.v. 15 minutes before ligation) was -46%. For the same molecule, the IC50 [9] was > 33 µM.
